The source of these data is patent publication US11331371B2, “Labyrinthopeptins as anti-viral agents” (Helmholtz-Zentrum Für Infektionsforschung GMBH, priority 2015, dated 2022).

Like-named read-outs stand apart in the source and are kept apart here.

Data set [1] deals with VSV glycoprotein-mediated cell entry (VSV-G-pseudotyped lentiviral particles). The conditions noted are these: 48 h.
In the next data set the test system is wild-type RSV (hRSV). The conditions noted are these: read-out: IC50 of the anti-viral activity, RSV; intracellular RSV-P staining, HEp 2 cells, MOI 1, 18 h post infection.
Data set [2] deals with CHIKV glycoprotein-mediated cell entry (CHIKV gp-pseudotyped lentiviral particles). The conditions noted are these: CHIKV glycoprotein pseudotypes, 293T cells, 48 h.
A short description of data set [3]: Cell-based HTS system for cytotoxic concentration (CC50), FF-luc HEp-2 cells. The conditions noted are these: 72 h, concentrations up to 100 μM, read-out: half maximal cytotoxic concentration (CC50). The procedure: Cells (e.g. HEp-2 cells), which stably express the reporter gene of a firefly luciferase (FF-luc), may be seeded in a 96-well plate in media, e.g. in Gibco® Advanced MEM. After 72 h of incubation at 37° C. in the presence of increasing concentrations of the labyrinthopeptin, labyrinthopeptin derivative or combination to be tested (e.g. up to 100 μM), the cells may be lysed and the extinction of the FF-luc (RLU) may be measured. Therefore, a plate luminometer (Berthold) may be used. The number of surviving cells is […] proportional to residual luciferase expression.
A cell-based screening system was used to determine the cytotoxic concentration (CC50) of labyrinthopeptin A1 and A2.
1×10^4 HEp-2 cells, which are stably expressing the reporter gene of a firefly luciferase (FF-luc), were seeded in a 96-well plate in 200 μl appropriate media. After 72 h of incubation at 37° C. in the presence of increasing concentrations of labyrinthopeptin A1 or A2 up to 100 μM, the cells have been lysed in 35 μl lysis buffer and the extinction of the FF-luc (RLU) was measured using a plate luminometer (Berthold). The number of surviving cells is […] proportional to residual luciferase expression.

The next data set deals with HCV JcR2a. The conditions noted are these: Huh 7.5 Fluc cells, Renilla luciferase after 48 h.
The test system of the next data set is KSHV. The following applies: read-out: IC50 of the anti-viral activity, KSHV; HEK 293 cells, MOI 0.01, 48 h.
The subject of data set [4] is GFP-expressing CMV (HCMV) strain pHG-1 (HT8-GFP, AD169-based). The conditions noted are these: read-out: IC50 of the anti-viral activity, CMV, NHDF cells, MOI 0.5, GFP at day 4 post infection.
The test system of a further data set is Huh 7.5 Fluc cells. Briefly: Cell viability (firefly luciferase) in the HCV assay.
Data set [5] deals with peripheral blood mononuclear cells (PBMCs). The conditions noted are these: cited from earlier work.
Data set [6] relates to Dengue Virus (Type 2 New Guinea C). Briefly: Dose response assay, DENV infection of Huh-7.5 cells, DENV envelope protein immunostaining, high-content imaging. The class given is cell-based. The conditions noted are these: MOI 0.5, 48 h post-infection; for IC50: read-out: IC50 of the anti-viral activity, DENV. The procedure:
Huh-7.5 cells (3×10^4 per well) were seeded in black 96-well optical-bottom plates [Nunc] in full growth medium one day prior to infection. After washing with PBS, 40 μl assay medium (5% FBS) was added to cells containing either Laby A1, Laby A2 (final conc. 50, 16.7, 5.56, 1.85, 0.62, 0.21, 0.069 μg/ml) or a combination of Laby A1 and Laby A2 (25, 8.3, 2.8, 0.93, 0.31, 0.10, 0.034 μg/ml each). Treatments were run in doublets. PBS served as a control. After 30 min of incubation, cells were infected with Dengue Virus (Type 2 New Guinea C) at an MOI of 0.5 to give a final volume of 60 μl/well. After 2 h incubation at room temperature cells were washed with PBS and 100 μl assay medium was added per well. Infected cells were incubated for another 48 h. Hereafter media were removed from the wells and cells were fixed with 4% PFA. Fixed cells were washed extensively with PBS and permeabilized with 0.25% TritonX-100 for 5 min. After blocking with 5% FB in PBS primary antibody was applied (Anti-Dengue Virus E glycoprotein antibody [DE1] (ab41349) [Abcam], 1:100 diluted in 5% FBS/PBS) for 2 h. After washing secondary antibody (Alexa Fluor® 488 Goat Anti-Mouse IgG (H+L) [Life Technologies], 1:1000 diluted in 5% FBS/PBS) was applied for 1 h. Finally, cells were stained with DAPI (500 ng/ml in PBS) for 5 min.
Fluorescent cells were analyzed by high-content imaging using the automated microscope ImageXpressMicro [Molecular Devices] and the MetaXpress-software. […] The number of total cells/site was determined by automatically counting DAPI-stained nuclei. The percentage of DENV-positive cells was calculated by automatically evaluating the number of Alexa Fluor 488-positive cells in relation to the total cell number. […] IC50-values were calculated by non-linear regression.
To determine a potential synergistic effect of Labyrinthopeptins A1 and A2 on DENV-infection a dose response assay was performed. […] The number of total cells as well as the percentage of Alexa Fluor 488-positive cells (=DENV positive cells) was determined by high-content fluorescence imaging.

A further data set has as its system TBEV (Toro isolate). The following applies: read-out: IC50 of the anti-viral activity, TBEV; Vero-B4 cells, MOI 0.01, 3 days, estimated by visual inspection.
Data set [7] has as its system human respiratory syncytial virus (RSV). The conditions noted are these: read-out: IC50, inhibition of RSV induced cell death; FF-luc HEp-2 cells, MOI 3, 72 h, indirect assay.
The subject of the next data set is ZIKV (Strain MR766-NIID). The conditions noted are these: read-out: IC50 of the anti-viral activity, ZIKV; Huh-7.5 cells, MOI 0.5, 48 h, genome copy equivalents.
Data set [8] concerns GFP-expressing CMV strain HT8-GFP (AD169). Briefly: Mode of action assay, pretreatment of CMV particles or NHDF cells. The following applies: LabyA1 3 μM, LabyA2 7 μM, PAA 180 μM. The class given is cell-based, Human cytomegalovirus.

For `C/C=C1\NC(=O)[C@H](Cc2ccccc2)NC(=O)[C@@H]2CCCN2C(=O)[C@H](C(C)C)NC(=O)[C@H](Cc2c[nH]c3ccccc23)NC(=O)[C@]23CSC[C@H](NC1=O)C(=O)N[C@H](C(=O)O)CSSC[C@H](NC(=O)[C@@H]1CSC[C@]4(C[C@H](N)C(=O)N[C@@H](CC(N)=O)C(=O)N[C@@H](C)C(=O)N4)C(=O)N[C@@H](C(C)C)C(=O)N[C@@H](Cc4c[nH]c5ccccc45)C(=O)N[C@@H](CCC(=O)O)C(=O)N1)C(=O)N[C@@H](C2)C(=O)N[C@@H]([C@@H](C)O)C(=O)NCC(=O)N3` [LabyA1, Labyrinthopeptin A1], the IC50 is 1.1 to 3.7 µM in data set [1]; 0.39 µM with wild-type RSV (hRSV); 0.5 to 1.7 µM in data set [2] (read-out: IC50 of the anti-viral activity, CHIKV); 1.05 µM in the data set with HCV JcR2a (read-out: IC50 of the anti-viral activity, HCV (virus entry), 4 h inoculation); 2 µM in the data set on KSHV; 1.3 µM in data set [4]. The IC50 in data set [4] (listed as Labyrinthopeptin A1) was approximately 1.3 µM; in data set [6], 1.78 µM; with TBEV (Toro isolate) it was 24.1 µM; in data set [7], 3.87 µM; in the data set with ZIKV (Strain MR766-NIID) it was 2.22 µM. Besides, in data set [1], the “IC50 of the anti-viral activity, VSV” value lay in the range of 2.3 to 7.7 mg/L. In addition, in [2], the “IC50 of the anti-viral activity, CHIKV” value was in the range of 1.0 to 3.5 mg/L. The CC50 in data set [3] is 79.7 µM. Besides, the IC90 with HCV JcR2a (read-out: IC90, inhibition of HCV virus entry) worked out at 9.16 µM. Besides, the “cytotoxicity at the tested concentrations in the HCV assay” value with Huh 7.5 Fluc cells is on record as “No cytotoxicity was observed”. Moreover, the “inflammatory response in PBMCs” value in [5] is on record as “does not cause an inflammatory response”.
As for `O=C(O)CP(=O)(O)O` [PAA, phosphonoacetic acid], the “inhibition of viral gene expression (CMV), permanently treated, effective dose” value in data set [8] (treatment throughout the infection cycle) is listed as “exerted inhibition only when permanently present in the culture medium”. Further, the “inhibition of viral gene expression (CMV), virus pretreated” value in data set [8] (virus pretreated 1 h then diluted 16-fold) is given as “not when it was removed after pretreatment of the virus or cells”.
In the case of `C#CCCCC(=O)N[C@H]1C[C@]2(CSC[C@@H](C(=O)N[C@H]3CSSC[C@@H](C(=O)O)NC(=O)[C@@H]4CSC[C@]5(C[C@H](NC3=O)C(=O)N[C@@H]([C@@H](C)O)C(=O)NCC(=O)N5)C(=O)N[C@@H](CC(C)C)C(=O)N[C@@H](Cc3ccccc3)C(=O)N[C@@H](C)C(=O)N4)NC(=O)[C@H](CCC(=O)O)NC(=O)[C@H](Cc3c[nH]c4ccccc34)NC(=O)[C@H](CC(C)C)NC2=O)NC(=O)[C@H](Cc2c[nH]c3ccccc23)NC(=O)[C@H](CC(=O)O)NC1=O` [LabyA2-hexyn], in data set [6], the “IC50 of the anti-viral activity, DENV” value was determined as 14.2 mg/L and the IC50 was 7.03 µM.

As a reminder, the IC50 is the concentration needed to halve the response being measured. What is called IC90 is the concentration at which the effect reaches the 90% level.
